Results taken from PubChem BioAssay (NCI).
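48-hour exposure; five concentrations; linearly interpolated endpoints. Here, GI50 denotes the concentration required for 50% inhibition of growth. TGI: concentration producing complete growth inhibition.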

Columns and labels:
Test in all cases: NCI-60 cell line screen, 48 h
MDA-MB-231 breast = tested on: MDA-MB-231 breast
SNB-75 CNS = tested on: SNB-75 CNS
OVCAR-8 ovarian = tested on: OVCAR-8 ovarian
A549 NSCLC = tested on: A549 NSCLC
HL-60(TB) leukemia = tested on: HL-60(TB) leukemia
NCI-H522 lung = tested on: NCI-H522 lung
HOP-62 NSCLC = tested on: HOP-62 NSCLC
RPMI-8226 leukemia = tested on: RPMI-8226 leukemia
UACC-62 melanoma = tested on: UACC-62 melanoma
SK-MEL-28 melanoma = tested on: SK-MEL-28 melanoma
MALME-3M melanoma = tested on: MALME-3M melanoma
UO-31 renal = tested on: UO-31 renal
SNB-19 CNS = tested on: SNB-19 CNS
SR leukemia = tested on: SR leukemia
SF-295 CNS = tested on: SF-295 CNS
HOP-92 NSCLC = tested on: HOP-92 NSCLC
TK-10 renal = tested on: TK-10 renal
MOLT-4 leukemia = tested on: MOLT-4 leukemia
NCI-H226 lung = tested on: NCI-H226 lung
MDA-MB-435 = tested on: MDA-MB-435
NCI/ADR-RES ovarian = tested on: NCI/ADR-RES ovarian
NCI-H23 lung = tested on: NCI-H23 lung
BT-549 breast = tested on: BT-549 breast
DU-145 prostate = tested on: DU-145 prostate
K-562 leukemia = tested on: K-562 leukemia
UACC-257 melanoma = tested on: UACC-257 melanoma
SK-OV-3 ovarian = tested on: SK-OV-3 ovarian
OVCAR-3 ovarian = tested on: OVCAR-3 ovarian
786-0 renal = tested on: 786-0 renal
SN12C renal = tested on: SN12C renal
RXF 393 renal = tested on: RXF 393 renal
CCRF-CEM leukemia = tested on: CCRF-CEM leukemia
ACHN renal = tested on: ACHN renal
OVCAR-4 ovarian = tested on: OVCAR-4 ovarian
LOX IMVI melanoma = tested on: LOX IMVI melanoma
PC-3 prostate = tested on: PC-3 prostate
M14 melanoma = tested on: M14 melanoma
COLO 205 colon = tested on: COLO 205 colon
IGROV1 ovarian = tested on: IGROV1 ovarian
SF-539 CNS = tested on: SF-539 CNS
HCC-2998 colon = tested on: HCC-2998 colon
HS 578T breast = tested on: HS 578T breast
A498 renal = tested on: A498 renal
SK-MEL-2 melanoma = tested on: SK-MEL-2 melanoma
T-47D breast = tested on: T-47D breast
SK-MEL-5 melanoma = tested on: SK-MEL-5 melanoma
SF-268 CNS = tested on: SF-268 CNS
OVCAR-5 ovarian = tested on: OVCAR-5 ovarian
KM12 colon = tested on: KM12 colon
NCI-H460 lung = tested on: NCI-H460 lung
U251 CNS = tested on: U251 CNS
HCT-15 colon = tested on: HCT-15 colon
HT29 colon = tested on: HT29 colon
SW-620 colon = tested on: SW-620 colon
EKVX NSCLC = tested on: EKVX NSCLC
MCF7 breast = tested on: MCF7 breast
CAKI-1 renal = tested on: CAKI-1 renal
HCT-116 colon = tested on: HCT-116 colon

## C=C1C(=O)O[C@H]2[C@H]1CC/C(COC(=O)CCCCCCCCC(=O)OC/C1=C/CC[C@@]3(C)O[C@H]3[C@H]3OC(=O)C(=C)[C@@H]3CC1)=C\CC[C@@]1(C)O[C@@H]21
MDA-MB-231 breast
  GI50: 1.92 µM
  TGI: 3.79 µM
SNB-75 CNS
  GI50: 4.8 µM
  TGI: 19.6 µM
OVCAR-8 ovarian
  GI50: 3.07 µM
  TGI: 8.1 µM
A549 NSCLC
  GI50: 6.63 µM
  TGI: 22.1 µM
HL-60(TB) leukemia
  GI50: 2.05 µM
  TGI: 8.26 µM
NCI-H522 lung
  GI50: 2.12 µM
  TGI: 4.04 µM
HOP-62 NSCLC
  GI50: 2.03 µM
  TGI: 4.65 µM
RPMI-8226 leukemia
  GI50: 2.92 µM
  TGI: 8.29 µM
UACC-62 melanoma
  GI50: 1.99 µM
  TGI: 4.25 µM
SK-MEL-28 melanoma
  GI50: 2.34 µM
  TGI: 6.04 µM
MALME-3M melanoma
  GI50: 1.84 µM
  TGI: 3.97 µM
UO-31 renal
  GI50: 1.47 µM
  TGI: 2.95 µM
SNB-19 CNS
  GI50: 2.45 µM
  TGI: 6.51 µM
SR leukemia
  GI50: 1.39 µM
  TGI: 11 µM
SF-295 CNS
  GI50: 2.56 µM
  TGI: 8.09 µM
HOP-92 NSCLC
  GI50: 1.94 µM
  TGI: 4.38 µM
TK-10 renal
  GI50: 2.47 µM
  TGI: 4.74 µM
MOLT-4 leukemia
  GI50: 2.58 µM
  TGI: 13.7 µM
NCI-H226 lung
  GI50: 2.75 µM
  TGI: 7.24 µM
MDA-MB-435
  GI50: 2.02 µM
  TGI: 4.59 µM
NCI/ADR-RES ovarian
  GI50: 3.14 µM
  TGI: 13.5 µM
NCI-H23 lung
  GI50: 2 µM
  TGI: 4.25 µM
BT-549 breast
  GI50: 1.54 µM
  TGI: 3.22 µM
DU-145 prostate
  GI50: 2.03 µM
  TGI: 4.2 µM
K-562 leukemia
  GI50: 2.6 µM
  TGI: 9.7 µM
UACC-257 melanoma
  GI50: 2.25 µM
  TGI: 4.41 µM
SK-OV-3 ovarian
  GI50: 12 µM
  TGI: 25.2 µM
OVCAR-3 ovarian
  GI50: 1.67 µM
  TGI: 3.11 µM
786-0 renal
  GI50: 1.75 µM
  TGI: 3.41 µM
SN12C renal
  GI50: 2.26 µM
  TGI: 5.32 µM
RXF 393 renal
  GI50: 1.86 µM
  TGI: 3.42 µM
CCRF-CEM leukemia
  GI50: 2.02 µM
  TGI: 11.8 µM
ACHN renal
  GI50: 1.8 µM
  TGI: 3.55 µM
OVCAR-4 ovarian
  GI50: 2.46 µM
  TGI: 7.55 µM
LOX IMVI melanoma
  GI50: 1.62 µM
  TGI: 3.08 µM
PC-3 prostate
  GI50: 1.99 µM
  TGI: 4.35 µM
M14 melanoma
  GI50: 1.63 µM
  TGI: 3.41 µM
COLO 205 colon
  GI50: 1.89 µM
  TGI: 4.15 µM
IGROV1 ovarian
  GI50: 1.97 µM
  TGI: 4.24 µM
SF-539 CNS
  GI50: 1.9 µM
  TGI: 3.95 µM
HCC-2998 colon
  GI50: 1.9 µM
  TGI: 3.58 µM
HS 578T breast
  GI50: 2.91 µM
  TGI: 9.88 µM
A498 renal
  GI50: 5.82 µM
  TGI: 18 µM
SK-MEL-2 melanoma
  GI50: 2.8 µM
  TGI: 8.2 µM
T-47D breast
  GI50: 2.16 µM
  TGI: 6.2 µM
SK-MEL-5 melanoma
  GI50: 1.91 µM
  TGI: 3.48 µM
SF-268 CNS
  GI50: 1.86 µM
  TGI: 3.84 µM
OVCAR-5 ovarian
  GI50: 2.26 µM
  TGI: 5.56 µM
KM12 colon
  GI50: 2.13 µM
  TGI: 4.68 µM
NCI-H460 lung
  GI50: 2.14 µM
  TGI: 4.4 µM
U251 CNS
  GI50: 1.96 µM
  TGI: 3.82 µM
HCT-15 colon
  GI50: 1.91 µM
  TGI: 4.47 µM
HT29 colon
  GI50: 2.08 µM
  TGI: 4.12 µM
SW-620 colon
  GI50: 1.87 µM
  TGI: 3.87 µM
EKVX NSCLC
  GI50: 1.95 µM
  TGI: 4.29 µM

## CCOC(=O)c1nc2ccccc2nc1NCc1ccc(OC)cc1
MDA-MB-231 breast
  TGI: > 100 µM
SNB-75 CNS
  TGI: > 100 µM
OVCAR-8 ovarian
  TGI: > 100 µM
A549 NSCLC
  TGI: > 100 µM
HL-60(TB) leukemia
  TGI: > 100 µM
NCI-H522 lung
  TGI: > 100 µM
HOP-62 NSCLC
  TGI: > 100 µM
RPMI-8226 leukemia
  TGI: > 100 µM
MCF7 breast
  TGI: > 100 µM
UACC-62 melanoma
  TGI: > 100 µM
SK-MEL-28 melanoma
  TGI: > 100 µM
MALME-3M melanoma
  TGI: > 100 µM
UO-31 renal
  TGI: > 100 µM
SR leukemia
  TGI: > 100 µM
SF-295 CNS
  TGI: > 100 µM
HOP-92 NSCLC
  TGI: > 100 µM
TK-10 renal
  TGI: > 100 µM
MOLT-4 leukemia
  TGI: > 100 µM
NCI-H226 lung
  TGI: > 100 µM
MDA-MB-435
  TGI: > 100 µM
NCI/ADR-RES ovarian
  TGI: > 100 µM
CAKI-1 renal
  TGI: > 100 µM
NCI-H23 lung
  TGI: > 100 µM
BT-549 breast
  TGI: > 100 µM
DU-145 prostate
  TGI: > 100 µM
K-562 leukemia
  TGI: > 100 µM
HCT-116 colon
  TGI: > 100 µM
UACC-257 melanoma
  TGI: > 100 µM
SK-OV-3 ovarian
  TGI: > 100 µM
OVCAR-3 ovarian
  TGI: > 100 µM
786-0 renal
  TGI: > 100 µM
RXF 393 renal
  TGI: 71.5 µM
CCRF-CEM leukemia
  TGI: > 100 µM
ACHN renal
  TGI: > 100 µM
OVCAR-4 ovarian
  TGI: > 100 µM
LOX IMVI melanoma
  TGI: > 100 µM
COLO 205 colon
  TGI: > 100 µM
IGROV1 ovarian
  TGI: > 100 µM
SF-539 CNS
  TGI: > 100 µM
HCC-2998 colon
  TGI: > 100 µM
HS 578T breast
  TGI: > 100 µM
A498 renal
  TGI: > 100 µM
T-47D breast
  TGI: > 100 µM
SK-MEL-5 melanoma
  TGI: > 100 µM
SF-268 CNS
  TGI: > 100 µM
OVCAR-5 ovarian
  TGI: > 100 µM
KM12 colon
  TGI: > 100 µM
NCI-H460 lung
  TGI: > 100 µM
U251 CNS
  TGI: > 100 µM
HCT-15 colon
  TGI: > 100 µM
HT29 colon
  TGI: > 100 µM
SW-620 colon
  TGI: > 100 µM
EKVX NSCLC
  TGI: > 100 µM

## O=S(=O)(/N=C(\NO)Nc1ccc(Cl)cc1)c1ccc(S(=O)(=O)c2ccccc2)s1
MDA-MB-231 breast
  TGI: 86.2 µM
OVCAR-8 ovarian
  TGI: 89.6 µM
A549 NSCLC
  TGI: > 100 µM
HL-60(TB) leukemia
  TGI: 50.6 µM
NCI-H522 lung
  TGI: 37.7 µM
HOP-62 NSCLC
  TGI: 82.8 µM
RPMI-8226 leukemia
  TGI: 35.8 µM
MCF7 breast
  TGI: > 100 µM
UACC-62 melanoma
  TGI: 33.7 µM
SK-MEL-28 melanoma
  TGI: 40.7 µM
MALME-3M melanoma
  TGI: 41.9 µM
UO-31 renal
  TGI: 53.8 µM
SNB-19 CNS
  TGI: > 100 µM
SF-295 CNS
  TGI: > 100 µM
HOP-92 NSCLC
  TGI: 31.3 µM
TK-10 renal
  TGI: 66.3 µM
MOLT-4 leukemia
  TGI: 35.9 µM
NCI-H226 lung
  TGI: 52.1 µM
MDA-MB-435
  TGI: 37.3 µM
NCI/ADR-RES ovarian
  TGI: > 100 µM
CAKI-1 renal
  TGI: 91.4 µM
NCI-H23 lung
  TGI: 52.1 µM
BT-549 breast
  TGI: 44.7 µM
DU-145 prostate
  TGI: 46 µM
K-562 leukemia
  TGI: 40.3 µM
HCT-116 colon
  TGI: 30.4 µM
UACC-257 melanoma
  TGI: 41 µM
OVCAR-3 ovarian
  TGI: 55.9 µM
786-0 renal
  TGI: > 100 µM
SN12C renal
  TGI: 39.9 µM
RXF 393 renal
  TGI: 87.7 µM
CCRF-CEM leukemia
  TGI: 51.6 µM
ACHN renal
  TGI: 89.3 µM
OVCAR-4 ovarian
  TGI: 93.8 µM
LOX IMVI melanoma
  TGI: 29.3 µM
PC-3 prostate
  TGI: > 100 µM
M14 melanoma
  TGI: 37.4 µM
COLO 205 colon
  TGI: 34.6 µM
IGROV1 ovarian
  TGI: 39.8 µM
SF-539 CNS
  TGI: 63.7 µM
HCC-2998 colon
  TGI: 29.7 µM
HS 578T breast
  TGI: 96.9 µM
A498 renal
  TGI: 41.8 µM
SK-MEL-2 melanoma
  TGI: 37.4 µM
T-47D breast
  TGI: 96.3 µM
SK-MEL-5 melanoma
  TGI: 24.5 µM
SF-268 CNS
  TGI: 90.7 µM
OVCAR-5 ovarian
  TGI: 63.7 µM
KM12 colon
  TGI: 60.4 µM
NCI-H460 lung
  TGI: 29.1 µM
U251 CNS
  TGI: 60.3 µM
HCT-15 colon
  TGI: > 100 µM
HT29 colon
  TGI: 57.7 µM
SW-620 colon
  TGI: > 100 µM
EKVX NSCLC
  TGI: 51.5 µM
